pEC50: −log10 of the molar value.
Assays:
MT4 CMV-EGFP cells = test: Cytotoxicity in mock-infected MT4 CMV-EGFP cells; type: cell-based, human; settings: fluorescence reduced by 50%
Text: Analogously, MT4 cells are engineered with GFP and the constitutional cytomegalovirus (CMV) promotor. This cell line is designated MT4 CMV-EGFP, and can be used for the in vitro evaluation of cytotoxicity of investigational compounds. In this cell line, GFP levels are comparably to those of infected MT4 LTR-EGFP cells. Cytotoxic investigational compounds reduce GFP levels of mock-infected MT4 CMV-EGFP cells.
(§1) Effective concentration values such as 50% effective concentration (EC50) can be determined and are usually expressed in μM. An EC50 value is defined as the concentration of test compound that reduces the fluorescence of HIV-infected cells by 50%. The 50% cytotoxic concentration (CC50 in μM) is defined as the concentration of test compound that reduces fluorescence of the mock-infected cells by 50%. The ratio of CC50 to EC50 is defined as the selectivity index (SI) and is an indication of the selectivity of the anti-HIV activity of the inhibitor. The ultimate monitoring of HIV-1 infection and cytotoxicity is done using a scanning microscope. Image analysis allows very sensitive detection of viral infection. Measurements are done before cell necrosis, which usually takes place about five days after infection, in particular measurements are performed three days after infection.

[1] = tested on: wild-type HIV-IIIB strain; test: Antiviral analysis EGFP: anti-HIV activity in MT4 LTR-EGFP cells; type: cell-based, HIV-1; settings: fluorescence of HIV-infected cells reduced by 50%, three days after infection
Method: The compounds of the present invention were tested for anti-viral activity in a cellular assay, which was performed according to the following procedure.
The human T-cell line MT4 is engineered with Green Fluorescent Protein (GFP) and an HIV-specific promoter, HIV-1 long terminal repeat (LTR). This cell line is designated MT4 LTR-EGFP, and can be used for the in vitro evaluation of anti-HIV activity of investigational compounds. In HIV-1 infected cells, the Tat protein is produced which upregulates the LTR promotor and finally leads to stimulation of the GFP reporter production, allowing measuring ongoing HIV-infection fluorometrically.
as §1
The following Table 5 lists EC50 values, expressed in micromole/liter, against wild-type HIV-IIIB strain, for a selected number of compounds of the invention.

SMILES	CC50 (MT4 CMV-EGFP cells)	pEC50 [1]
N#Cc1cc2ccc(-c3cnccn3)cc2n(-c2ccc([N+](=O)[O-])cc2)c1=O [compound 78]	> 100 µM	5.88
N#Cc1cc2ccc(OCCN3CCOCC3)cc2n(-c2ccc([N+](=O)[O-])cc2)c1=O [compound 55]	> 32 µM	4.87
N#Cc1cc2ccc(-c3cccs3)cc2n(-c2ccc([N+](=O)[O-])cc2)c1=O [compound 36]	> 100 µM	6.12
Cc1ccc(-n2c(=O)c(C#N)cc3ccc(Cl)cc32)cc1C#N [compound 161]	> 100 µM	5.21
CS(=O)(=O)NCc1cccc(-c2ccc3cc(C#N)c(=O)n(-c4ccc([N+](=O)[O-])cc4)c3c2)c1 [compound 50]	11.8 µM	5.52
CCC(CC)NCCCOc1ccc2cc(C#N)c(=O)n(-c3ccc([N+](=O)[O-])cc3)c2c1 [compound 68]	51.6 µM	6.14
N#Cc1c(NCCCN)c2ccccc2n(-c2ccc([N+](=O)[O-])cc2)c1=O [compound 137]	45.1 µM	5.44
CC(=O)NCCNc1c(C#N)c(=O)n(-c2ccc([N+](=O)[O-])cc2)c2ccccc12 [compound 141]	> 100 µM	4.49
CN(C)Cc1cccc(-c2ccc3cc(C#N)c(=O)n(-c4ccc([N+](=O)[O-])cc4)c3c2)c1 [compound 45]	17.1 µM	6.85
N#Cc1cc2ccc(-c3cc[nH]c3)cc2n(-c2ccc([N+](=O)[O-])cc2)c1=O [compound 44]	> 100 µM	6.72
N#Cc1cc2ccc(-c3ccncc3)cc2n(-c2ccc([N+](=O)[O-])cc2)c1=O [compound 29]	> 32 µM	6.04
Cc1ccc(-n2c(=O)c(C#N)cc3ccc(-c4cc[nH]n4)cc32)cc1C#N [compound 153]	> 100 µM	6.28
CN(C)CCNc1c(C#N)c(=O)n(-c2ccc([N+](=O)[O-])cc2)c2ccccc12 [compound 142]	54.7 µM	5.48
N#Cc1cc2ccc(-c3ccc[nH]3)cc2n(-c2ccc([N+](=O)[O-])cc2)c1=O [compound 34]	32.3 µM	6.60
Cc1ccc2cc(C#N)c(=O)n(-c3ccc([N+](=O)[O-])cc3)c2c1 [compound 95]	> 100 µM	< 4.00
N#Cc1cc2ccc(-c3cn[nH]c3)cc2n(-c2ccc([N+](=O)[O-])cc2)c1=O [compound 48]	> 100 µM	6.15
CC(=O)Nc1cccc(-c2ccc3cc(C#N)c(=O)n(-c4ccc(C)c(C#N)c4)c3c2)c1 [compound 155]	> 100 µM	4.96
N#Cc1cc2ccc(-c3ccc(C(=O)O)s3)cc2n(-c2ccc([N+](=O)[O-])cc2)c1=O [compound 47]	> 100 µM	< 4.00
Cc1ccc(-n2c(=O)c(C#N)cc3ccc(-c4cccc(CN(C)C)c4)cc32)cc1C#N [compound 152]	3.95 µM	6.24
N#Cc1cc2ccc(-c3cccc(C(N)=O)c3)cc2n(-c2ccc([N+](=O)[O-])cc2)c1=O [compound 42]	> 100 µM	5.55

SMILES	CC50 (MT4 CMV-EGFP cells)	pEC50 [1]
Cc1ccc(-n2c(=O)c(C#N)c(N)c3ccc(-c4cc[nH]n4)cc32)cc1C#N [compound 124]	> 100 µM	4.08
N#Cc1cc2ccc(-c3ccoc3)cc2n(-c2ccc([N+](=O)[O-])cc2)c1=O [compound 41]	38.1 µM	6.55
CN(C)CCCNc1ccc2cc(C#N)c(=O)n(-c3ccc([N+](=O)[O-])cc3)c2c1 [compound 20]	49 µM	6.52
COCCNc1ccc2cc(C#N)c(=O)n(-c3ccc([N+](=O)[O-])cc3)c2c1 [compound 17]	> 32 µM	< 4.49
N#Cc1c(N)c2ccc(Cl)cc2n(-c2ccc([N+](=O)[O-])cc2)c1=O [compound 102]	> 32 µM	6.07
CCNCCCOc1ccc2cc(C#N)c(=O)n(-c3ccc([N+](=O)[O-])cc3)c2c1 [compound 65]	69 µM	6.59
COc1cc2c(N)c(C#N)c(=O)n(-c3ccc([N+](=O)[O-])cc3)c2cc1OC [compound 109]	> 100 µM	4.87
N#Cc1cc2cc(OCCN3CCCC3)ccc2n(-c2ccc([N+](=O)[O-])cc2)c1=O [compound 89]	> 32 µM	5.80
N#Cc1c(N)c2cc(F)c(Cl)cc2n(-c2ccc([N+](=O)[O-])cc2)c1=O [compound 108]	> 100 µM	6.05
N#Cc1cc2ccc(OCCO)cc2n(-c2ccc([N+](=O)[O-])cc2)c1=O [compound 75]	> 32 µM	5.46
N#Cc1cc2ccc(OCCCN)cc2n(-c2ccc(Cl)nc2)c1=O [compound 92]	> 32 µM	5.07
N#Cc1c(NCCO)c2ccccc2n(-c2ccc([N+](=O)[O-])cc2)c1=O [compound 134]	54.6 µM	4.87
N#Cc1c(N)c2ccc(C(F)(F)F)cc2n(-c2ccc([N+](=O)[O-])cc2)c1=O [compound 114]	> 100 µM	5.40
N#Cc1cc2ccc(NCCN3CCCC3)cc2n(-c2ccc([N+](=O)[O-])cc2)c1=O [compound 12]	> 100 µM	5.91
Cc1ccc(-n2c(=O)c(C#N)c(N)c3ccc(-c4cccs4)cc32)cc1C#N [compound 126]	> 100 µM	5.24
CNc1c(C#N)c(=O)n(-c2ccc([N+](=O)[O-])cc2)c2ncccc12 [compound 128]	> 32 µM	4.86
N#Cc1cc2ccc(-c3cccnc3)cc2n(-c2ccc([N+](=O)[O-])cc2)c1=O [compound 33]	> 100 µM	6.08
N#Cc1cc2ccc(OCCN)cc2n(-c2ccc([N+](=O)[O-])cc2)c1=O [compound 53]	> 100 µM	5.94
Cc1ccc(-n2c(=O)c(C#N)cc3ccccc32)cn1 [compound 5]	> 32 µM	< 4.49
N#Cc1cc2ccc(NCCN)cc2n(-c2ccc([N+](=O)[O-])cc2)c1=O [compound 16]	> 32 µM	5.81

SMILES	CC50 (MT4 CMV-EGFP cells)	pEC50 [1]
N#Cc1cc2ccc(-c3ccc(C(=O)O)cc3)cc2n(-c2ccc([N+](=O)[O-])cc2)c1=O [compound 49]	> 100 µM	< 4.00
Cc1ccc2c(N)c(C#N)c(=O)n(-c3ccc([N+](=O)[O-])cc3)c2c1 [compound 115]	> 100 µM	6.17
N#Cc1c(N)c2ccc(-c3cscn3)cc2n(-c2ccc([N+](=O)[O-])cc2)c1=O [compound 120]	> 100 µM	6.27
N#Cc1cc2ccc(OCCCN3CCCCC3)cc2n(-c2ccc([N+](=O)[O-])cc2)c1=O [compound 67]	> 32 µM	5.93
N#Cc1cc2ccccc2n(-c2ccc(Cl)nc2)c1=O [compound 4]	> 32 µM	< 4.49
CNCCNc1c(C#N)c(=O)n(-c2ccc([N+](=O)[O-])cc2)c2ccccc12 [compound 135]	53.2 µM	5.47
N#Cc1cc2ccc(OCCCN)cc2n(-c2ccc([N+](=O)[O-])cc2)c1=O [compound 57]	49.6 µM	5.97
N#Cc1cc2ccc(-c3cncs3)cc2n(-c2ccc([N+](=O)[O-])cc2)c1=O [compound 77]	25.8 µM	6.47
N#Cc1c(N)c2cc3c(cc2n(-c2ccc(Cl)nc2)c1=O)OCO3 [compound 117]	> 32 µM	< 4.49
N#Cc1cc2cc3c(cc2n(-c2ccc([N+](=O)[O-])cc2)c1=O)OCO3 [compound 6]	> 100 µM	5.95
N#Cc1cc2ccccc2n(-c2ccc([N+](=O)[O-])cn2)c1=O [compound 3]	> 32 µM	5.32
N#Cc1ccc(-n2c(=O)c(C#N)cc3ccccc32)cc1 [compound 2]	> 32 µM	< 4.49
N#Cc1c(N)c2ccc(Cl)cc2n(-c2cccc([N+](=O)[O-])c2)c1=O [compound 112]	> 100 µM	5.25
N#Cc1cc2ccc(-c3cccc(CO)c3)cc2n(-c2ccc([N+](=O)[O-])cc2)c1=O [compound 38]	18.6 µM	6.21
N#Cc1cc2cc(OCCCN)ccc2n(-c2ccc([N+](=O)[O-])cc2)c1=O [compound 84]	15.5 µM	5.44
N#Cc1c(NCCCN2CCCC2)c2ccccc2n(-c2ccc([N+](=O)[O-])cc2)c1=O [compound 132]	15.3 µM	5.69
N#Cc1cc2ccc(NCc3cccnc3)cc2n(-c2ccc([N+](=O)[O-])cc2)c1=O [compound 23]	> 32 µM	< 4.49
N#Cc1cc2ccc(-c3cncnc3)cc2n(-c2ccc([N+](=O)[O-])cc2)c1=O [compound 31]	> 100 µM	5.10

— patent US20100087649A1, “QUINOLINONE DERIVATIVES” (priority 2006, published 2010)
